Reference: patent US20060270666A1, “Quinoxaline derivatives as neutrophil elastase inhibitors and their use” (priority 2003, published 2006)

Biological target: T1, Human Neutrophil Elastase (HNE) (Homo sapiens, UniProt P08246)
T1 construct: Human Neutrophil Elastase (HNE) purified from serum (Calbiochem art. 324681); purchased Calbiochem 324681; host or cells: natural human material (serum)
T1 sequence (P08246 30-267): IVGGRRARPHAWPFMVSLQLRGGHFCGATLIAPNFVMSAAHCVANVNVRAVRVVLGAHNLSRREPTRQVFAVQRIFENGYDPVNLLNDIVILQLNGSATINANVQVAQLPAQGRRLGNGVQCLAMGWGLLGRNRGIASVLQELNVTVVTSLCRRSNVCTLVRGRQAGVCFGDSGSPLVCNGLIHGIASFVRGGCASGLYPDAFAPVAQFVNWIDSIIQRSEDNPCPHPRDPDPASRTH
Assay: Human Neutrophil Elastase Quenched-FRET Assay
Format: biochemical
Conditions: HNE purified from serum; substrate MeOSuc-AAPV-AMC; 15 min pre-incubation, 30 min incubation at room temperature; read-out: Inhibition of Human Neutrophil Elastase IC50
Method: Human Neutrophil Elastase Quenched-FRET Assay
The assay uses Human Neutrophil Elastase (HNE) purified from serum (Calbiochem art. 324681; Ref. Baugh, R. J. et al., 1976, Biochemistry. 15, 836-841). HNE was stored in 50 mM NaOAc, 200 mM NaCl, pH 5.5 with added 30% glycerol at −20° C. The protease substrate used was Elastase Substrate V Fluorogenic, MeOSuc-AAPV-AMC (Calbiochem art. 324740; Ref. Castillo, M. J. et al., 1979, Anal. Biochem. 99, 53-64). The substrate was stored in DMSO at −20° C. The assay additions were as follows: Test compounds and controls were added to black 96-well flat-bottom plates (Greiner 655076), 1 μL in 100% DMSO, followed by 30 μL HNE in assay buffer with 0.01% TritonX-100. The assay buffer constitution was: 100 mM Tris (pH 7.5) and 500 mM NaCl. The enzyme and the compounds were incubated at room temperature for 15 minutes. Then 30 μl substrate in assay buffer was added. The assay was stopped after 30 minutes incubation at room temperature by adding 60 μl stop solution (140 mM acetic acid, 200 mM sodium monochloroacetate, 60 mM sodium acetate, pH 4.3). Fluorescence was measured on a Wallac 1420 Victor 2 instrument at settings: Excitation 380 nm, Emission 460 nm. IC50 values were determined using Xlfit curve fitting using model 205.

Row | IC50 | SMILES
1 | 226 nM | Cc1ccc(CNC(=O)c2nc3ccccc3n(-c3cccc(C(F)(F)F)c3)c2=O)cc1 [Example 2.12, N-(4-Methylbenzyl)-3-oxo-4-[3-(trifluoromethyl)phenyl]-3,4-dihydroquinoxaline-2-carboxamide]
2 | 573 nM | O=C(NCCc1ccc(F)cc1)c1nc2ccccc2n(-c2cccc(C(F)(F)F)c2)c1=O [Example 2.20, N-[2-(4-Fluorophenyl)ethyl]-3-oxo-4-[3-(trifluoromethyl)phenyl]-3,4-dihydroquinoxaline-2-carboxamide]
3 | 248 nM | N#CC1CCC(CNC(=O)c2nc3ccccc3n(-c3cccc(C(F)(F)F)c3)c2=O)CC1 (stereo not drawn) [Example 2.10, N-[(4-Cyanocyclohexyl)methyl]-3-oxo-4-[3-(trifluoromethyl)phenyl]-3,4-dihydroquinoxaline-2-carboxamide]
